{
  "source": "patent US9249147B2",
  "about": "“Tyrosine kinase inhibitors” (CHEMBRIDGE CORPORATION, priority 2008, dated 2016)",
  "key": {"Karpas299": {"system": "Karpas299", "assay": "Cell proliferation inhibition, ALCL line Karpas299", "type": "cell-based", "conditions": "Homo sapiens, KARPAS-299; Example 4, most sensitive cell lines; read-out: Proliferation IC50 Karpas299", "outline": "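NPM-ALK-positive Karpas-299 cells (2×10^4 per well) were treated with compound at final concentrations of 25 to 0.78125 μM, with DMSO-only controls. Proliferation and viability were read colorimetrically by XTT reduction to formazan.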"}, "[1]": {"assay": "Plasma Protein Binding (Human), equilibrium dialysis", "type": "in vitro ADME", "conditions": "1.0E−05 M"}},
  "note": "Values joined by “and” are separate entries in the source; they are usually repeats but may differ in a detail not shown here. Equal values may be shown once.",
  "data": [
    {"smiles": "Cc1ccc(F)cc1C[C@H](C)Nc1cc[nH]c(=O)c1-c1nc2cc3c(cc2[nH]1)C(=O)N(CCN1CCCC1)C3", "note": "[compound (II)]", "values": [
      {"measurement": "IC50", "setting": "Karpas299", "value": "5 to 10", "unit": "nM"},
      {"measurement": "% Protein Bound, Mean", "setting": "[1]; equilibrium dialysis", "value": 94.7, "unit": "%"},
      {"measurement": "% Protein Bound, 1st/2nd", "setting": "[1]; individual data, listed as CRL241", "value": "94.6% and 94.7%"}
    ]}
  ]
}
